Results on 17 compounds are retold here after patent publication US8455497B2, “Inhibitors of aspartyl protease” (Vertex Pharmaceuticals Incorporated, priority 1999, dated 2013).

The test system of one assay is HIV-1 (strain IIIB). The experiment in a line: Antiviral activity assay in MT4 cells (propidium iodide based). It is filed as cell-based. The settings on record: Human immunodeficiency virus 1, IIIB; wild type HIV-1 virus, MT4 cells; read-out: Wildtype virus - IC50. The essentials:
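Compound serial dilutions in RPMI/FCS received MT4 cells pre-infected 1 hr at 37°C with HIV-1 IIIB at 100×TCID50. After 5 days' culture and Nonidet-40 lysis, well DNA content was measured by propidium iodide dye; mock-infected cells served as control.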

Assay [1] deals with D545701-14 multi protease inhibitor resistant virus. In words: Anti-viral activity against resistant virus D545701-14 in MT4 cells. It is filed as cell-based, HIV-1.
Assay [2] concerns EP13 multi protease inhibitor resistant virus. The experiment in a line: Anti-viral activity against resistant virus EP13 in MT4 cells. It is filed as cell-based, HIV-1. The following applies: Human immunodeficiency virus 1, MT4, read-out: EP13 mutant IC50, EP13 multi protease inhibitor resistant virus, MT4 cells. In short, it runs like this:
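MT4 cells infected for 1 h at 37 °C, MOI 100×TCID50, then diluted 6-fold onto pre-diluted compound and cultured 5 days (5% CO2). Viable-cell DNA content estimated by propidium iodide. EP13 carries protease mutations M46I, L63P, A71V, V82F/L, I84V, no RT mutations.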

[3] abbreviates: Human immunodeficiency virus 1, MT4, read-out: D545701-14 mutant - IC50, D545701-14 multi protease inhibitor resistant virus, MT4 cells.

Like-named read-outs stand apart in the source and are kept apart here.

Turning to `CNC(=O)COc1ccc(C[C@H](NC(=O)O[C@H]2CO[C@H]3OCC[C@H]32)[C@H](O)CN(CC(C)C)S(=O)(=O)c2ccc3c(c2)OCO3)cc1` [Compound 315, (3R,3aS,6aR)-Hexahydrofuro[2,3-b]furan-3-yl (1S,2R)-3[(1,3-benzodioxol-5-ylsulfonyl)(isobutyl)amino]-2-hydroxy-1-{4-[2-(methylamino)-2-oxoethoxy]benzyl}propylcarbamate], the 50% inhibitory concentration (IC50) was in the range of 10 to 100 nM in the assay with HIV-1 (strain IIIB), 1 to 10 nM in assay [1] (setting [3]) and 1 to 10 nM in assay [2].
On to `CC(C)CN(C[C@@H](O)[C@H](Cc1ccc(OCc2cccc(C#N)c2)cc1)NC(=O)O[C@@H]1CO[C@H]2OCC[C@H]21)S(=O)(=O)c1ccc(N)cc1` [Compound 301, (3S,3aS,6aR)-hexahydrofuro[2,3-b]furan-3-yl (1S,2R)-3-[[(4-aminophenyl)sulfonyl](isobutyl)amino]-1-{4-[(3-cyanobenzyl)oxy]benzyl}-2-hydroxypropylcarbamate], for which the concentration for half-maximal inhibition (IC50) (in the assay on HIV-1 (strain IIIB); in assay [1] (setting [3]); in assay [2]) was 1 to 10 nM each time.
In the case of `CC(C)CN(C[C@@H](O)[C@H](Cc1ccc(OCCN2CCSC2)cc1)NC(=O)O[C@H]1CO[C@H]2OCC[C@H]21)S(=O)(=O)c1ccc2c(c1)OCO2` [Compound 324, (3R,3aS,6aR)-Hexahydrofuro[2,3-b]furan-3-yl (1S,2R)-3-[(1,3-benzodioxol-5-ylsulfonyl)(isobutyl)amino]-2-hydroxy-1-{4-[2-(1,3-thiazolidin-3-yl)ethoxy]benzyl}propylcarbamate], the IC50 (in the assay on HIV-1 (strain IIIB); in assay [1] (setting [3]); in assay [2]) was 1 to 10 nM throughout.
On to `CC(C)CN(C[C@@H](O)[C@H](Cc1ccc(OCc2ccccn2)cc1)NC(=O)O[C@@H]1CO[C@H]2OCC[C@H]21)S(=O)(=O)c1ccc(N)cc1` [Compound 299, (3S,3aS,6aR)-hexahydrofuro[2,3-b]furan-3-yl (1S,2R)-3-[[(4-aminophenyl)sulfonyl]-(isobutyl)amino]-2-hydroxy-1-[4-(2-pyridinylmethoxy)benzyl]propylcarbamate], for which the IC50 (in the assay with HIV-1 (strain IIIB); in assay [1] (setting [3]); in assay [2]) was 1 to 10 nM each time.
`CC(C)CN(C[C@@H](O)[C@H](Cc1ccc(OCC(F)(F)F)cc1)NC(=O)O[C@H]1CO[C@H]2OCC[C@H]21)S(=O)(=O)c1ccc2c(c1)OCO2` [Compound 304, (3R,3aS,6aR)-hexahydrofuro[2,3-b]furan-3-yl (1S,2R)-3-[(1,3-benzodioxol-5-ylsulfonyl)(isobutyl)amino]-2-hydroxy-1-[4-(2,2,2-trifluoroethoxy)benzyl]propylcarbamate]: the IC50 (in the assay with HIV-1 (strain IIIB); in assay [1] (setting [3]); in assay [2]) was 1 to 10 nM throughout.
With `CCC(CC)ON(C[C@@H](O)[C@H](Cc1ccc(OCc2ccccc2)cc1)NC(=O)O[C@H]1CO[C@H]2OCC[C@H]21)S(=O)(=O)c1ccc2c(c1)OCO2` [Compound 329, (3R,3aS,6aR)-Hexahydrofuro[2,3-b]furan-3-yl (1S,2R)-3-[(1,3-benzodioxol-5-ylsulfonyl)(1-ethylpropoxy)amino]-1-[4-(benzyloxy)benzyl]-2-hydroxypropylcarbamate], the half-maximal inhibitory concentration (IC50) was in the range of 1 to 10 nM with HIV-1 (strain IIIB), 10 to 100 nM in assay [1] (setting [3]) and 10 to 100 nM in assay [2].
Turning to `Cc1cccc(COc2ccc(C[C@H](NC(=O)O[C@H]3CO[C@H]4OCC[C@H]43)[C@H](O)CN(CC(C)C)S(=O)(=O)c3ccc4c(c3)OCO4)cc2)c1` [Compound 377, (3R,3aS,6aR)-hexahydrofuro[2,3-b]furan-3-yl (1S,2R)-3-[(1,3-benzodioxol-5-ylsulfonyl)(isobutyl)amino]-2-hydroxy-1-{4-[(3-methylbenzyl)oxy]benzyl}propylcarbamate], the IC50 in the assay on HIV-1 (strain IIIB) lay in the range of 1 to 10 nM; in assay [1] (setting [3]), 10 to 100 nM; in assay [2], 1 to 10 nM.
On to `CC(C)(CCCC#N)CN(C[C@@H](O)[C@H](Cc1ccc(OCc2ccccc2)cc1)NC(=O)O[C@H]1CO[C@H]2OCC[C@H]21)S(=O)(=O)c1ccc2c(c1)OCO2` [Compound 305, (3R,3aS,6aR)-Hexahydrofuro[2,3-b]furan-3-yl (1S,2R)-3-[(1,3-benzodioxol-5-ylsulfonyl)(5-cyano-2,2-dimethylpentyl)amino]-1-[4-(benzyloxy)benzyl]-2-hydroxypropylcarbamate], for which the IC50 (in the assay on HIV-1 (strain IIIB); in assay [1] (setting [3]); in assay [2]) was 1 to 10 nM in each case.
In the case of `CC(C)CN(C[C@@H](O)[C@H](Cc1ccc(OCCNC(=O)OC(C)(C)C)cc1)NC(=O)O[C@H]1CO[C@H]2OCC[C@H]21)S(=O)(=O)c1ccc2c(c1)OCO2` [Compound 219, (3R,3aS,6aR)-hexahydrofuro[2,3-b]furan-3-yl (1S,2R)-3-[(1,3-benzodioxol-5-ylsulfonyl)(isobutyl)amino]-1-(4-{2-[(tert-butoxycarbonyl)amino]ethoxy}benzyl)-2-hydroxypropylcarbamate], the half-maximal inhibitory concentration (IC50) (in the assay with HIV-1 (strain IIIB); in assay [1] (setting [3]); in assay [2]) was 1 to 10 nM each time.
Turning to `CC(C)CN(C[C@@H](O)[C@H](Cc1ccc(OS(=O)(=O)c2ccc3c(c2)OCO3)cc1)NC(=O)O[C@H]1CO[C@H]2OCC[C@H]21)S(=O)(=O)c1ccc2c(c1)OCO2` [Compound 349, 4-{(2S,3R)-2-({[(3R,3aS,6aR)-hexahydrofuro[2,3-b]furan-3-yloxy]carbonyl}amino)-4-[(1,3-benzodioxol-5-ylsulfonyl)(isobutyl)amino]-3-hydroxybutyl}phenyl 1,3-benzodioxole-5-sulfonate], the IC50 (in the assay on HIV-1 (strain IIIB); in assay [1] (setting [3]); in assay [2]) was 1 to 10 nM in each case.
Regarding `Cc1nc(COc2ccc(C[C@H](NC(=O)O[C@@H]3CO[C@H]4OCC[C@H]43)[C@H](O)CN(CC(C)C)S(=O)(=O)c3ccc(N)cc3)cc2)cs1` [Compound 300, (3S,3aS,6aR)-hexahydrofuro[2,3-b]furan-3-yl (1S,2R)-3-[[(4-aminophenyl)sulfonyl]-(isobutyl)amino]-2-hydroxy-1-{4-[(2-methyl-1,3-thiazol-4-yl)methoxy]benzyl}propylcarbamate], the IC50 (in the assay with HIV-1 (strain IIIB); in assay [1] (setting [3]); in assay [2]) was 1 to 10 nM each time.
As to `CC(C)CN(C[C@@H](O)[C@H](Cc1ccc(OCCCCN/C(=N/C#N)Oc2ccccc2)cc1)NC(=O)O[C@H]1CO[C@H]2OCC[C@H]21)S(=O)(=O)c1ccc2c(c1)OCO2` [Compound 263, (3R,3aS,6aR)-hexahydrofuro[2,3-b]furan-3-yl (1S,2R)-3-[(1,3-benzodioxol-5-ylsulfonyl)(isobutyl)amino]-1-[4-(4{[(E and/or Z)-(cyanoimino)(phenoxy)methyl]amino}butoxy)benzyl]-2-hydroxypropylcarbamate], the half-inhibitory concentration (IC50) (in the assay with HIV-1 (strain IIIB); in assay [1] (setting [3]); in assay [2]) was 1 to 10 nM throughout.
Turning to `CC(C)CN(C[C@@H](O)[C@H](Cc1ccc(OCCCc2ccccc2)cc1)NC(=O)O[C@H]1CO[C@H]2OCC[C@H]21)S(=O)(=O)c1ccc2c(c1)OCO2` [Compound 203, (3R,3aS,6aR)hexahydrofuro[2,3-b]furan-3-yl (1S,2R)-3-[(1,3-benzodioxol-5-ylsulfonyl)(isobutyl)amino]-2-hydroxy-1-[4-([3-phenylpropyl]oxy)benzyl]propylcarbamate], the IC50 is under 1 nM in the assay with HIV-1 (strain IIIB); 10 to 100 nM in assay [1] (read-out: D545701-14 mutant - IC50, D545701-14 multi protease inhibitor resistant virus, MT4 cells); 1 to 10 nM in assay [2].
With `CNC(=O)OCCCOc1ccc(C[C@H](NC(=O)O[C@H]2CO[C@H]3OCC[C@H]32)[C@H](O)CN(CC(C)C)S(=O)(=O)c2ccc3c(c2)OCO3)cc1` [Compound 320, (3R,3aS,6aR)-Hexahydrofuro[2,3-b]furan-3-yl (1S,2R)-3[(1,3-benzodioxol-5-ylsulfonyl)(isobutyl)amino]-2-hydroxy-1-[4-(3-{[(methylamino)carbonyl]oxy}propoxy)benzyl]propylcarbamate], the IC50 (in the assay with HIV-1 (strain IIIB); in assay [1] (setting [3]); in assay [2]) was 1 to 10 nM in each case.
`CC(C)CN(C[C@@H](O)[C@H](Cc1ccc(Oc2nc(F)c(F)c(F)c2F)cc1)NC(=O)O[C@H]1CO[C@H]2OCC[C@H]21)S(=O)(=O)c1ccc2c(c1)OCO2` [Compound 332, (3R,3aS,6aR)-hexahydrofuro[2,3-b]furan-3-yl (1S,2R)-3-[(1,3-benzodioxol-5-ylsulfonyl)(isobutyl)amino]-2-hydroxy-1-{4-[(3,4,5,6-tetrafluoro-2-pyridinyl)oxy]benzyl}propylcarbamate]: the IC50 in the assay with HIV-1 (strain IIIB) is 1 to 10 nM; in assay [1] (setting [3]), 10 to 100 nM; in assay [2], 1 to 10 nM.
Take `CC(C)CN(C[C@@H](O)[C@H](Cc1ccc(OCc2ccccn2)cc1)NC(=O)O[C@H]1CO[C@H]2OCCC21)S(=O)(=O)c1cccc(N)c1` (stereo partly drawn) [Compound 293]: the IC50 (in the assay on HIV-1 (strain IIIB); in assay [1] (setting [3]); in assay [2]) was 1 to 10 nM throughout.
For the compound `CC(C)CN(C[C@@H](O)[C@H](Cc1ccc(OCCCn2cccn2)cc1)NC(=O)O[C@H]1CO[C@H]2OCC[C@H]21)S(=O)(=O)c1ccc2c(c1)OCO2` [Compound 284, (3R,3aS,6aR)-hexahydrofuro[2,3-b]furan-3-yl (1S,2R)-3-[(1,3-benzodioxol-5-ylsulfonyl)(isobutyl)amino]-2-hydroxy-1-{4-[3-(1H-pyrazol-1-yl)propoxy]benzyl}propylcarbamate], the half-maximal inhibitory concentration (IC50) (in the assay with HIV-1 (strain IIIB); in assay [1] (setting [3]); in assay [2]) was 1 to 10 nM throughout.
